Laboratory results as given in patent US20060258578A1, “Pharmaceutical composition” (The University of Zurich, priority 2005, published 2006).
Entries after “also recorded” stand apart in the source; their conditions may differ.

What was measured:
MC3T3-E1 cells [1] = assay: maturation of preosteoblastic cells determined by alkaline phosphatase activity; assay type: cell-based; conditions: for effect on maturation of MC3T3-E1 cells (alkaline phosphatase activity), solvent comparison: increasing amounts of solvent, triacetin 0,1 to 6 mM (FIG. 3)
Protocol: (§1) MC3T3-E1 cells were grown in an alpha-modified Minimum Essential Medium (Life Technologies, Inc., Grand Island, N.Y.) containing 10% fetal calf serum (Life Technologies, Inc.), 50 μg/ml gentamycin, and 50 μg/ml ascorbic acid. C3H10T1/2 cells were grown in basal medium Eagle, and 50 μg/ml gentamycin. To examine the action of triacetin on both cell lines, 1×10^5 cells per well were plated in 6-well plates and triacetin subsequently added. Medium exchange was performed after 3 days and alkaline phosphatase (ALP) was determined according to Lowry, O. et al. [J. Biol. Chem. 207 (1954) 19-37]: p-nitrophenol liberated was converted to p-nitrophenylate by adding 400 μl of 1 M NaOH, which was quantitated by measuring the absorbance at 410 nm (epsilon=17500/mol×cm). Alkaline phosphatase activity was normalized to total protein and expressed as nmol nitrophenylate generated per min per mg protein.
(§2) First, to verify the osteoinductive activity of triacetin an embryonic, murine, mesenchymal stem cell line C3H10T1/2 and a preosteoblastic cell line MC3T3-E1 were used and cultured as described above. C3H10T1/2 cells can differentiate into cartilage, bone or adipose cells, whereas MC3T3-E1 produces and releases autologous BMP. Alkaline phosphatase activity was used as a marker for the differentiation into the osteoblastic lineage.
Additionally, the effect of various plasticizers/solvents regarding their osteogenetic effect was compared to that of triacetin. MC3T3-E1 cells were grown as described above and treated with increasing amounts of different solvents and the effect on the maturation of MC3T3-E1 cells determined after 6 days by alkaline phosphatase activity.
To determine the effect of external BMP, C3H10T1/2 cells and MC3T3-E1 cells were plated at day one in 4 ml medium and ALP determination performed on day 6. On day 1 rhBMP was added to the cells from a stock solution of 2 mg/ml rhBMP-2 in 1 mM HCl to a concentration of 1 μg/ml. triacetin to a final concentration of 2 and 4 mM was added to the cells at the same time point from a stock solution of 200 mM triacetin in respective medium. After application triacetin and rhBMP was mixed by gently swirling the entire 6 well plate. In a separate experiment, the cells were treated with triacetin only.
In a similar manner, the effect of external rhBMP-4 on the maturation of MC3T3-E1 cells was determined by alkaline phosphatase activity. MC3T3-E1 cells were treated with triacetin in the presence or absence of 60 ng rhBMP-4/ml of the medium.
MC3T3-E1 cells were treated with triacetin in the presence or absence of 60 ng rhBMP-7/ml of the medium.

MC3T3-E1 cells [2] = assay: mineralization visualized by Alizarin red-S staining; assay type: cell-based; conditions: MC3T3-E1, 4 weeks, 5 mM glycerol phosphate, 2.0 and 4.0 mM triacetin
Protocol: FIG. 2A: MC3T3-E1 cells treated with increasing amounts of triacetin and the maturation determined after 6 days by alkaline phosphatase activity. FIG. 2B: Mineralization by MC3T3-E1 cells seeded on a 6-well plate visualized by Alizarin S-staining. The MC3T3-E1 cells were cultured for 4 weeks in the presence of 5 mM glycerol phosphate. From the left: no triacetin was added, 2.0 mM triacetin was added, 4.0 mM triacetin.
Mineralization was determined in MC3T3-E1 cells grown in the same medium supplemented with 5 mM glycerol phosphate and 1 μg/ml rhBMP-2 or 60 ng/ml of rhBMP-4 of rhBMP-7. Alizarin red-S staining was performed after 4 weeks according to Bodine, P. V. N., et al. [J. Bone Mineral Res. 11 (1996) 806-819].

C3H10T1/2 cells = assay: differentiation of mesenchymal stem cells towards osteoblastic lineage determined by alkaline phosphatase activity; assay type: cell-based, murine
Protocol: as §1
as §2, with “Alkaline phosphatase activity was used as a marker for the differentiation into the osteoblastic lineage.” left out
The differentiation of the mesenchymal cell like cell line (C3H10T1/2) towards an osteoblastic lineage was determined by alkaline phosphatase activity. […]

CO [methanol, reference compound]
effect on maturation of MC3T3-E1 cells (alkaline phosphatase activity), solvent comparison (MC3T3-E1 cells [1]; after 6 days): no positive effect

CC(=O)OCC(COC(C)=O)OC(C)=O [triacetin, glyceryl triacetate]
increase of alkaline phosphatase activity (MC3T3-E1 cells [1]; MC3T3-E1, 0,0 to 4 mM triacetin, after 6 days): 2.0-7.0 factor
synergistic effect with rhBMP4 on maturation (alkaline phosphatase activity) (MC3T3-E1 cells [1]; MC3T3-E1, triacetin with 60 ng rhBMP4/ml (FIG. 5)): synergistic effect
synergistic effect with rhBMP-7 on maturation (alkaline phosphatase activity) (MC3T3-E1 cells [1]; MC3T3-E1, triacetin with 60 ng rhBMP-7/ml (FIG. 6)): synergistic bone forming effect
synergistic effect with rhBMP-2 on maturation (alkaline phosphatase activity) (MC3T3-E1 cells [1]; MC3T3-E1, triacetin with 1 μg rhBMP-2/ml (FIG. 4)): synergistic effect
effect on maturation of MC3T3-E1 cells (alkaline phosphatase activity), solvent comparison (MC3T3-E1 cells [1]; after 6 days): increases in a concentration dependent manner
mineralisation by alizarin-S-staining (MC3T3-E1 cells [2]): increased mineralisation
alkaline phosphatase activity, triacetin alone (C3H10T1/2 cells; C3H10T1/2, 2 mM and 4 mM, absence of rhBMP): increase in alkaline phosphatase activity; also recorded: able to induce alkaline phosphatase activity
synergistic effect with rhBMP-2 on alkaline phosphatase activity (C3H10T1/2 cells; C3H10T1/2, triacetin 2 and 4 mM with 1 μg rhBMP-2/ml, day 6): further enhanced; also recorded: works synergistically

C[S+](C)[O-] [dimethylsulfoxide, reference compound]
effect on maturation of MC3T3-E1 cells (alkaline phosphatase activity), solvent comparison (MC3T3-E1 cells [1]; after 6 days): no positive effect

CCO [ethanol, reference compound]
effect on maturation of MC3T3-E1 cells (alkaline phosphatase activity), solvent comparison (MC3T3-E1 cells [1]; after 6 days): no positive effect

CN(C)C=O [N,N-dimethylformamide, reference compound]
effect on maturation of MC3T3-E1 cells (alkaline phosphatase activity), solvent comparison (MC3T3-E1 cells [1]; after 6 days): no positive effect
